The target of assay [1] is EGFR^L858R (Homo sapiens, UniProt P00533, L858R). Kind of assay: in vitro kinase assay (HTRF KinEASE-TK kit), L. Conditions: kinase inhibition. Type of assay: biochemical. The text has this: (§1) Assays using an in vitro kinase assay kit (HTRF KinEASE-TK kit) can be used to study the inhibitory activity of compounds described herein with respect to EGFR mutants such as EGFR^L858R, EGFR^L58R/T790M, and EGFR^L858R/T790M/C^797S.
For orientation: TR-FRET usually uses a lanthanide donor and a delayed reading to cut background.

For assay [2], the system named is Ba/F3 Parental. Kind of assay: Ba/F3 viability assay (CellTiter-Glo), parental. It counts as cell-based. Conditions: Mus musculus, BaF3, anti-proliferation. In a few lines: (§2)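 Proliferation inhibition, viability-based; mutant EGFR lines plus parental control.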
A general note: ATP-based viability assays read luminescence as a measure of living cells.

The target in assay [3] is Ba/F3 EGFR-Del19/C797S (Homo sapiens, UniProt P00533, C797S, cells depend on it, form not given). The assay can be described thus: Ba/F3 viability assay (CellTiter-Glo), DC. Type of assay: cell-based. The settings on record: anti-proliferation, read-out: BaF3 DC IC50. The procedure, abridged:
as §2

For assay [4], the target named is EGFR^L858R/T790M/C^797S (Homo sapiens, UniProt P00533, C797S/L858R/T790M). Kind of assay: in vitro kinase assay (HTRF KinEASE-TK kit), LTC. Type of assay: biochemical. The settings on record: kinase inhibition.
Source text: as §1

Assay [5] addresses EGFR^L58R/T790M (Homo sapiens, UniProt P00533, L858R/T790M). Kind of assay: in vitro kinase assay (HTRF KinEASE-TK kit), LT. It counts as biochemical. Conditions: kinase inhibition.
Source text: as §1

In assay [6] the target is Ba/F3 EGFR-Del19/T790M (Homo sapiens, UniProt P00533, T790M, cells depend on it, form not given). The assay can be described thus: Ba/F3 viability assay (CellTiter-Glo), DT. It counts as cell-based. Conditions: anti-proliferation, read-out: BaF3 DT IC50. In a few lines: as §2
Assay [7] has as its target Ba/F3 EGFR-Del19/T790M/C797S (Homo sapiens, UniProt P00533, T790M/C797S, cells depend on it, form not given). Kind of assay: Ba/F3 viability assay (CellTiter-Glo), DTC. Type of assay: cell-based. Conditions: anti-proliferation, read-out: BaF3 DTC IC50. The procedure, abridged:
as §2

As usually defined, the IC50 is the concentration needed to halve the response being measured.

Chain of EGFR^L58R/T790M (P00533 25-1210 T790M/L858R): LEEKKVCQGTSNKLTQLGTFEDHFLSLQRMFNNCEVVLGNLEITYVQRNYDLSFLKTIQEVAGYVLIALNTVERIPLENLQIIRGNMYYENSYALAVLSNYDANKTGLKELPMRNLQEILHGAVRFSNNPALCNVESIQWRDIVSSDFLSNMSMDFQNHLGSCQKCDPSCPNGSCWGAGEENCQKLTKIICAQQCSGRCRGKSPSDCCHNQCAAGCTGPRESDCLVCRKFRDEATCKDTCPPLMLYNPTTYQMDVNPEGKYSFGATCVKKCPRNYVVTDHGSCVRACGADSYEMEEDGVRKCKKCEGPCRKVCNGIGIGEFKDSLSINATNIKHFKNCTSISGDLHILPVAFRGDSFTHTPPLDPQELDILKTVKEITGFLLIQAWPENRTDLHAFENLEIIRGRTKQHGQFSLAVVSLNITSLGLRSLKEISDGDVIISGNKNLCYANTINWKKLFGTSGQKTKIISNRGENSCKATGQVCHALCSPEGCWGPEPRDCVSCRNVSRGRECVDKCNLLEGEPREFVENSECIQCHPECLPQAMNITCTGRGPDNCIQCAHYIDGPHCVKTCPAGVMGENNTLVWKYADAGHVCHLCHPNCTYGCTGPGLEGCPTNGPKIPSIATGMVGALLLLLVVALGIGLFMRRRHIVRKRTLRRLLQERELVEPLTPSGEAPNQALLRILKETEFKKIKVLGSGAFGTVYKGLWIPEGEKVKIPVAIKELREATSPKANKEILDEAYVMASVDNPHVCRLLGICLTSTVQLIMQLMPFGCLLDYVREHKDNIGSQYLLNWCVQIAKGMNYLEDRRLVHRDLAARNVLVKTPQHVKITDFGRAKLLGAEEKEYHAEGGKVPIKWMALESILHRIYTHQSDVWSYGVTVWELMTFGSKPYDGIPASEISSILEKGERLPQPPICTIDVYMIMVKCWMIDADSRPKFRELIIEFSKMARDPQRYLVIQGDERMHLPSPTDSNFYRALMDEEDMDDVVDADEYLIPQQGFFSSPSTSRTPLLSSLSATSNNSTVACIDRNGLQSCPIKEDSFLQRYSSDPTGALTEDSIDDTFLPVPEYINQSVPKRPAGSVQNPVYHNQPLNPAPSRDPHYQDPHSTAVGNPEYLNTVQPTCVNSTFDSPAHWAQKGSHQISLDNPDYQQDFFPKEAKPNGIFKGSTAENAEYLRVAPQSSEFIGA
Chain of Ba/F3 EGFR-Del19/C797S (P00533 with tags, fused parts or gaps DEL746-750/C797S, form open): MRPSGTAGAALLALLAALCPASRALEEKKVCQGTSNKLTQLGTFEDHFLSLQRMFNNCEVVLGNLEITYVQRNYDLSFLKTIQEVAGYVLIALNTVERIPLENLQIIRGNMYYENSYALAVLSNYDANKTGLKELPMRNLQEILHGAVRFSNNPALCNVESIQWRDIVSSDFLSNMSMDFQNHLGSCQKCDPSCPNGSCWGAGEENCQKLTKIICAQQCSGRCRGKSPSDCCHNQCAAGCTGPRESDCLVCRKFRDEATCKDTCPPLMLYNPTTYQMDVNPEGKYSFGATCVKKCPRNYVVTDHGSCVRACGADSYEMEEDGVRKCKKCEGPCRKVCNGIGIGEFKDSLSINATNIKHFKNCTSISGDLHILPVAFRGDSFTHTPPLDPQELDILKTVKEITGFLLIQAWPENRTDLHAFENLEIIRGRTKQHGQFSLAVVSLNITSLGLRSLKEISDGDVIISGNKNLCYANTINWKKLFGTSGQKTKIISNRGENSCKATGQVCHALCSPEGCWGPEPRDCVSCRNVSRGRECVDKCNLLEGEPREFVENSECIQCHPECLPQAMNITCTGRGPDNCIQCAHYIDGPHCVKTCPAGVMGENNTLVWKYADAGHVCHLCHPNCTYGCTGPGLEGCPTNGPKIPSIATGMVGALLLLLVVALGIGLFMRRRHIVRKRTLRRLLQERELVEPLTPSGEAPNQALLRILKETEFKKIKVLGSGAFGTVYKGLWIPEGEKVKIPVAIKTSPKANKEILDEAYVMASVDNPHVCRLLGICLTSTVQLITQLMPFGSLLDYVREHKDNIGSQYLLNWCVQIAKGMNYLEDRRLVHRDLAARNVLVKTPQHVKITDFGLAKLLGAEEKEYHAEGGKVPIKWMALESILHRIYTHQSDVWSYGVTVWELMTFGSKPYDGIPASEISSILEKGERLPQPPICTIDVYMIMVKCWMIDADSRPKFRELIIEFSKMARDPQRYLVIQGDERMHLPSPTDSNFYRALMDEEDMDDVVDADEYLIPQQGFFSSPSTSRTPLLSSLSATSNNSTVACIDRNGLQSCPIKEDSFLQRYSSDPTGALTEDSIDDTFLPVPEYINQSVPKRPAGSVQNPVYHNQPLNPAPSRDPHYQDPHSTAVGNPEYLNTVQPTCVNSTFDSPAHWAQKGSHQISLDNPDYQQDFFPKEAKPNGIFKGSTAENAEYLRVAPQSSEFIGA
Chain of Ba/F3 EGFR-Del19/T790M/C797S (P00533 with tags, fused parts or gaps DEL746-750/T790M/C797S, form open): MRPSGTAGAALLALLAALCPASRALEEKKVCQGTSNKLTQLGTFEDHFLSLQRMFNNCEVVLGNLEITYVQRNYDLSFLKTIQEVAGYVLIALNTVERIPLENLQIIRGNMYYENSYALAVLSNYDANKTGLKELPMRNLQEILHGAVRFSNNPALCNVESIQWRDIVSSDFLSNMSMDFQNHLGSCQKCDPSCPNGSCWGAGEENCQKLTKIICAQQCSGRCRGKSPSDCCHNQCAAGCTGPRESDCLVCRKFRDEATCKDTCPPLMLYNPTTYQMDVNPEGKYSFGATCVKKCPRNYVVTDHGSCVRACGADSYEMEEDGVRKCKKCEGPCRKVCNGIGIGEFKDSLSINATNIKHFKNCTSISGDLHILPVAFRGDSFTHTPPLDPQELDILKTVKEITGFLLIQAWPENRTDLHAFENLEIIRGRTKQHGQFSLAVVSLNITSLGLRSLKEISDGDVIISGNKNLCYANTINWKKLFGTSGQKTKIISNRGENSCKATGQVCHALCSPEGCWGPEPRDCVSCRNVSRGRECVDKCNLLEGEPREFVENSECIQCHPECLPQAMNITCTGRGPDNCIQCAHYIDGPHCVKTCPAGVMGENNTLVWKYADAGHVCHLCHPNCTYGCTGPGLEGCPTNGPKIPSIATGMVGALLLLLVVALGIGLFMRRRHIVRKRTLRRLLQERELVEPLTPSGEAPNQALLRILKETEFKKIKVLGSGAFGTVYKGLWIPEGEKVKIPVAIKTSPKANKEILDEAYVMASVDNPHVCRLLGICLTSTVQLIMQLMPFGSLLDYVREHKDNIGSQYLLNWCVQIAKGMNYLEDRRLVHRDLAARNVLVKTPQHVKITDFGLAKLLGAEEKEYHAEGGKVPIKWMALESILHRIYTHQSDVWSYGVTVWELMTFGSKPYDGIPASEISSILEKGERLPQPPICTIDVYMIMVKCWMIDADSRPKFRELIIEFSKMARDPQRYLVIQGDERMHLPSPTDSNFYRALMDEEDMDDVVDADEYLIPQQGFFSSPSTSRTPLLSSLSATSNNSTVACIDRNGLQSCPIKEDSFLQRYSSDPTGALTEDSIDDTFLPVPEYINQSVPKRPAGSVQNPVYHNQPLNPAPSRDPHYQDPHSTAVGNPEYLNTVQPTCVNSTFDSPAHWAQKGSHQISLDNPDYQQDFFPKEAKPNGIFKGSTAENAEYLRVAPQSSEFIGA
Chain of EGFR^L858R/T790M/C^797S (P00533 25-1210 T790M/C797S/L858R): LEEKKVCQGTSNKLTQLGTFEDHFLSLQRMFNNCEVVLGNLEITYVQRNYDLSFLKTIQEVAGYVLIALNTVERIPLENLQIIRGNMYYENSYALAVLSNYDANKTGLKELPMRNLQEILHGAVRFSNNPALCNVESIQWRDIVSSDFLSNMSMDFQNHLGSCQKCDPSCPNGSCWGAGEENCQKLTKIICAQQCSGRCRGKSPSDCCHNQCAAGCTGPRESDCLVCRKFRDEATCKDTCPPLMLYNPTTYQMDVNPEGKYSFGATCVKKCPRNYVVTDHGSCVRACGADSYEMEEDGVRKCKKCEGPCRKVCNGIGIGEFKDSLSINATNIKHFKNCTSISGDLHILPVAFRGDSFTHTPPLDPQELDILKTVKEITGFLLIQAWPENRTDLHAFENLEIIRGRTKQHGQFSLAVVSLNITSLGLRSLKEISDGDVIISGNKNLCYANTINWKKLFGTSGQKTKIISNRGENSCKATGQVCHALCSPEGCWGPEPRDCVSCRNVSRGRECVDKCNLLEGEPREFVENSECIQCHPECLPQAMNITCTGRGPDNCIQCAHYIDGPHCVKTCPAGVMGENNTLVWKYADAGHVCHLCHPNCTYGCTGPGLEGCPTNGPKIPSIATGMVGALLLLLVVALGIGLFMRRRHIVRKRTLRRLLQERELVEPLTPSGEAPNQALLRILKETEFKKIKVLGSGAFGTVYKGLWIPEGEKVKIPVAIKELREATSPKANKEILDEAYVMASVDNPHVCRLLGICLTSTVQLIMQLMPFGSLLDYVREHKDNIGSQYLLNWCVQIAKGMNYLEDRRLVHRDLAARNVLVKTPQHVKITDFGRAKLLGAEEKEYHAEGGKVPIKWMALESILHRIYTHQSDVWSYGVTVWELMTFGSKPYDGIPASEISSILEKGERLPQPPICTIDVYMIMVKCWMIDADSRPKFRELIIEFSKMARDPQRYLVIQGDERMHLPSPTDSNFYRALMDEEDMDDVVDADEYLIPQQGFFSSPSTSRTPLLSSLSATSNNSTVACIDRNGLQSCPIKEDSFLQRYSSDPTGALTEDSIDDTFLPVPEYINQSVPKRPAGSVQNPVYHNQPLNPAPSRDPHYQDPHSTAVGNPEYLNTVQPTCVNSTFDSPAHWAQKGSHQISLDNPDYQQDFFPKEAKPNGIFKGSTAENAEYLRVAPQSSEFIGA

On to `CN1CCN(CC2CCCN2c2nn3c4cc(ncc24)Nc2ccnc(n2)-c2cnn(C)c2OCCC3)CC1` (stereo not shown) [(10)], for which the IC50 in assay [1] is 100 to 1000 nM; in assay [2], 100 to 1000 nM; in assay [4], < 10 nM; in assay [5], < 10 nM. Further, the GI50 in assay [3], in assay [6] and in assay [7] was 100 to 1000 nM throughout.

Turning to `C[C@H]1CCOc2c(cnn2C)-c2nccc(n2)Nc2cc3c(cn2)c(N2CC[C@H](N(C)CCF)C2)nn31` [(170)], the IC50 is < 10 nM in assay [1], 100 to 1000 nM in assay [2], < 10 nM in assay [4] and < 10 nM in assay [5]. In addition, the GI50 in assay [3] is 10 to 100 nM; in assay [6] it was 10 to 100 nM; in assay [7] it was < 10 nM.

Consider `CCn1cc(-c2nn3c4cc(ncc24)Nc2ccnc(n2)-c2cnn(C)c2OCC[C@@H]3C)cc1CN1CCN(C2CC2)CC1` [(126)], for which the IC50 in assay [1] was < 10 nM; in assay [2], 100 to 1000 nM; in assay [4], < 10 nM; in assay [5], < 10 nM. Further, the GI50 in assay [3], in assay [6] and in assay [7] was < 10 nM in each case.

With `CC1CCOc2c(cnn2C)-c2nccc(n2)Nc2cc3c(cn2)c(-c2cc(CN4CCN(C)CC4)cn2C)nn31` (stereo not shown) [(83)], the IC50 in assay [1] is 10 to 100 nM; in assay [2], 10 to 100 nM; in assay [4] it was < 10 nM; in assay [5] it was < 10 nM. The GI50 in assay [3], in assay [6] and in assay [7] was 10 to 100 nM in each case.

Take `C[C@H]1CCOc2c(cnn2C)-c2nccc(n2)Nc2cc3c(cn2)c(N2CCN(C4CC4)CC2)nn31` [(97)]: the half-maximal inhibitory concentration (IC50) in assay [1] is 100 to 1000 nM; in assay [2] it was ≥ 1000 nM; in assay [4], 10 to 100 nM; in assay [5] it was < 10 nM. For the same molecule, the GI50 in assay [3], in assay [6] and in assay [7] was 100 to 1000 nM throughout.

In the case of `CCN(CC)C1CCN(c2cc(F)cc(-c3nn4c5cc(ncc35)Nc3ccnc(n3)-c3cnn(C)c3OCC[C@@H]4C)c2)CC1` [(141)], the IC50 in assay [1] is < 10 nM; in assay [2], 100 to 1000 nM; in assay [4], < 10 nM; in assay [5], < 10 nM. The GI50 in assay [3], in assay [6] and in assay [7] was 10 to 100 nM each time.

Regarding `CCN(CC)CCn1cc(-c2nn3c4cc(ncc24)Nc2ccnc(n2)-c2cnn(C)c2OCC[C@@H]3C)cn1` [(117)], the IC50 in assay [1] was < 10 nM; in assay [2] it was 10 to 100 nM; in assay [4] it was < 10 nM; in assay [5], < 10 nM. The values for the GI50 in assay [3], in assay [6] and in assay [7] were 10 to 100 nM, < 10 nM and < 10 nM, respectively.

As for `C[C@H]1CCOc2c(cnn2C)-c2nccc(n2)Nc2cc3c(cn2)c(-c2cccc(OCCN(C)C)c2)nn31` [(110)], the IC50 is < 10 nM in assay [1], 100 to 1000 nM in assay [2], < 10 nM in assay [4] and < 10 nM in assay [5]. In addition, the GI50 in assay [3], in assay [6] and in assay [7] was < 10 nM throughout.

For `CC(C)NCc1ccc(-c2nn3c4cc(ncc24)Nc2ccnc(n2)-c2cnn(C)c2OCC[C@@H]3C)n1C` [(188)], the IC50 was < 10 nM in assay [1], 100 to 1000 nM in assay [2], < 10 nM in assay [4] and < 10 nM in assay [5]. The GI50 in assay [3], in assay [6] and in assay [7] was < 10 nM in each case.

As to `CC1CCCOc2c(cnn2C)-c2nccc(n2)Nc2cc3c(cn2)c(N2CCCC2)nn31` (stereo not shown) [(71)], the IC50 in assay [1] was < 10 nM; in assay [2], 100 to 1000 nM; in assay [4] it was < 10 nM; in assay [5], < 10 nM. The GI50 in assay [3], in assay [6] and in assay [7] was 10 to 100 nM each time.

As to `CN1CCN(C(=O)C2CCN(c3nn4c5cc(ncc35)Nc3ccnc(n3)-c3cnn(C)c3OCCC4)C2)CC1` (stereo not shown) [(66)], the IC50 in assay [1] is 10 to 100 nM; in assay [2], ≥ 1000 nM; in assay [4] it was < 10 nM; in assay [5] it was < 10 nM. The GI50 in assay [3], in assay [6] and in assay [7] was 100 to 1000 nM throughout.

On to `C[C@H]1CCOc2c(cnn2C)-c2nccc(n2)Nc2cc3c(cn2)c(-c2cccc(N4CCC(O)CC4)c2)nn31` [(111)], for which the IC50 in assay [1] is < 10 nM; in assay [2], 100 to 1000 nM; in assay [4] it was < 10 nM; in assay [5] it was < 10 nM. The GI50 in assay [3] is 10 to 100 nM; in assay [6] it was < 10 nM; in assay [7] it was < 10 nM.

On to `C[C@H]1CCOc2c(cnn2C)-c2nccc(n2)Nc2cc3c(cn2)c(-c2ccc(CN(C)CCF)n2C)nn31` [(184), N-[[5-[(16S)-11,16-dimethyl-13-oxa-2,6,10,11,17,18,22,25-octazapentacyclo[15.5.2.1^3,7.0^8,12.0^20,24]pentacosa-1(22),3,5,7(25),8(12),9,18,20,23-nonaen-19-yl]-1-methyl-pyrrol-2-yl]methyl]-2-fluoro-N-methyl-ethanamine], for which the half-maximal inhibitory concentration (IC50) was < 10 nM in assay [1], 100 to 1000 nM in assay [2], < 10 nM in assay [4] and < 10 nM in assay [5]. For the same molecule, the results for the GI50 in assay [3], in assay [6] and in assay [7] were 10 to 100 nM, < 10 nM and < 10 nM, respectively.

`C[C@H]1CCOc2c(cnn2C)-c2nccc(n2)Nc2cc3c(cn2)c(-c2ccc(CN4CC[C@H](N(C)C)C4)n2C)nn31` [(187)]: the 50% inhibitory concentration (IC50) in assay [1] was < 10 nM; in assay [2], 100 to 1000 nM; in assay [4] it was < 10 nM; in assay [5], < 10 nM. Besides, the GI50 in assay [3], in assay [6] and in assay [7] was < 10 nM each time.

Take `CCN(CC)CCN(C)c1cc(F)cc(-c2nn3c4cc(ncc24)Nc2ccnc(n2)-c2cnn(C)c2OCC[C@@H]3C)c1` [(132)]: the IC50 in assay [1] is 10 to 100 nM; in assay [2], 100 to 1000 nM; in assay [4], < 10 nM; in assay [5], < 10 nM. Moreover, the GI50 in assay [3], in assay [6] and in assay [7] was 10 to 100 nM each time.

As for `Cc1c(-c2nn3c4cc(ncc24)Nc2ccnc(n2)-c2cnn(C)c2OCCCC3C)cnn1CCC(C)(C)O` (stereo not shown) [(92)], the IC50 in assay [1] is 10 to 100 nM; in assay [2], 100 to 1000 nM; in assay [4], < 10 nM; in assay [5] it was < 10 nM. The GI50 in assay [3], in assay [6] and in assay [7] was 10 to 100 nM throughout.

For `C[C@H]1CCOc2c(cnn2C)-c2nccc(n2)Nc2cc3c(cn2)c(N2CCOCC2)nn31` [(104)], the IC50 in assay [1] is 10 to 100 nM; in assay [2] it was 100 to 1000 nM; in assay [4], < 10 nM; in assay [5], < 10 nM. Besides, the GI50 in assay [3], in assay [6] and in assay [7] was 10 to 100 nM throughout.

As to `C[C@H]1CCOc2c(cnn2C)-c2nccc(n2)Nc2cc3c(cn2)c(-c2cc(CN4CCN(C)CC4)n(C)n2)nn31` [(95)], the half-maximal inhibitory concentration (IC50) in assay [1] is < 10 nM; in assay [2], 100 to 1000 nM; in assay [4] it was < 10 nM; in assay [5] it was < 10 nM. Besides, the GI50 in assay [3], in assay [6] and in assay [7] was 10 to 100 nM throughout.

For `C[C@H]1CCOc2c(cnn2C)-c2nccc(n2)Nc2cc3c(cn2)c(N2CC[C@H](N(C)C)C2)nn31` [(178)], the IC50 in assay [1] was 10 to 100 nM; in assay [2], 100 to 1000 nM; in assay [4], < 10 nM; in assay [5] it was < 10 nM. Besides, the GI50 is 10 to 100 nM in assay [3], 10 to 100 nM in assay [6] and < 10 nM in assay [7].

On to `C[C@H]1CCOc2c(cnn2C)-c2nccc(n2)Nc2cc3c(cn2)c(-c2cnn(CCCN4CCOCC4)c2)nn31` [(115)], for which the half-maximal inhibitory concentration (IC50) in assay [1] was 10 to 100 nM; in assay [2] it was 100 to 1000 nM; in assay [4], < 10 nM; in assay [5], < 10 nM. For the same molecule, the GI50 in assay [3], in assay [6] and in assay [7] was 10 to 100 nM in each case.

As to `C[C@H]1CCOc2c(cnn2C)-c2nccc(n2)Nc2cc3c(cn2)c(-c2ccc(F)c(OCCN(C)C)c2)nn31` [(131)], the IC50 in assay [1] was < 10 nM; in assay [2], 100 to 1000 nM; in assay [4] it was < 10 nM; in assay [5] it was < 10 nM. Moreover, the GI50 in assay [3], in assay [6] and in assay [7] was < 10 nM throughout.

With `Cc1cc(OCCN(C)C)cc(-c2nn3c4cc(ncc24)Nc2ccnc(n2)-c2cnn(C)c2OCC[C@@H]3C)c1` [(134)], the IC50 in assay [1] was < 10 nM; in assay [2], 100 to 1000 nM; in assay [4], < 10 nM; in assay [5], < 10 nM. For the same molecule, the GI50 in assay [3], in assay [6] and in assay [7] was 10 to 100 nM each time.
